# Patent publication US6319955A, “Use of MEK1 inhibitors as protective agents against damage due to ischemia” (priority 2000, dated 2001)
# Legend:
# MEK1 = conditions: Favata et al., 1998, DeSilva et al.; cited from earlier work
# [1] = arterial blood pH, pCO2 and pO2, PD98059; format: in vivo, mouse
# Procedure: Partial oxygen tension (pO2), partial carbon dioxide tension (pCO2), and blood pH were determined in the presence or absence of 200 μM PD98059, 1 hour after the induction of ischemia under 1% halothane anesthesia (Table 3).
# [2] = test system: neurological deficits caused by ischemia; experiment: neurological grading after 2 hours of MCA occlusion and reperfusion; format: in vivo, mouse (SV-129); conditions: three days after 2 hours MCA occlusion and reperfusion; mean±SEM; vehicle 2.2±0.3; P<0.05
# Procedure: Data are presented as mean ±SEM Data were analyzed by Student-t test or one-way ANOVA followed by Bonferroni's post hoc test.
# [3] = regional cerebral blood flow by Laser-Doppler flowmetry, PD98059; format: in vivo, mouse; conditions: 200 μM PD98059, n = 5, % of baseline, means ±SD
# Source text: Data are presented as means ±SD. Therefore, the decrease in ERK1/2 phosphorylation seen with PD98059 was not due to higher blood flow.
# ERK1/2 [4] = experiment: immunohistochemistry of phosphorylated ERK1/2 in brain slices after ischemia and reperfusion (PD98059 i.c.v.); format: in vivo, mouse (SV-129); conditions: 2 μl of 200 μM i.c.v. 30 min before ischemia; 120 min ischemia, 3 min reperfusion
# [5] = mean arterial blood pressure, PD98059; format: in vivo, mouse
# Procedure: Mean arterial blood pressure (MABP) was determined in the presence or absence of 200 μM PD98059 10 minutes before and 1 hour after induction of ischemia, and 30 minutes after reperfusion under 1% halothane anesthesia (Table 2). Data are presented as means±SD. MABP was determined to be unaltered.
# [6] = mouse, in vivo
# SAPKs/JNKs = conditions: Cohen, Trends Cell Biol. 7:353, 1997; cited from earlier work
# p38 MAP kinase = conditions: Cohen, Trends Cell Biol. 7:353, 1997; cited from earlier work
# ERK1/2 [7] = conditions: 5 mM glutamate
# [8] = compared with native tPA; cited from earlier work
molecule,measurement,setting,value
"COc1cccc(-c2cc(=O)c3ccccc3o2)c1N [PD98059, 2-(2-amino-3-methoxyphenyl)-4-oxo-4H-[1]benzopyran]","inhibition of active / inactive MEK1, in words",MEK1,cannot efficiently inhibit MEK1 once it is activated
same,cell injury,"HT22 cells; PD98059 50 μM, 9 hours after 5 mM glutamate",partially attenuated cell injury
same,protective effects,"HT22 cells; PD98059 50 μM, 24 hours after 5 mM glutamate",did not sustain for 24 hours
same,blood pH,"[1]; 200 μM PD98059, n = 5, 1 hour after induction of ischemia, means ±SD, DMSO 7.32 ± 0.06",7.32 ± 0.07
same,PCO2,"[1]; 200 μM PD98059, n = 5, 1 hour after induction of ischemia, means ±SD, DMSO 48.8 ± 5.1, in mmHg (unit assumed)",49.9 ± 3.5
same,PO2,"[1]; 200 μM PD98059, n = 5, 1 hour after induction of ischemia, means ±SD, DMSO 155.3 ± 13.8, in mmHg (unit assumed)",139.1 ± 21.6
same,"pO2, pCO2, and blood pH, in words",[1]; 200 μM PD98059 vs DMSO,did not differ between the two groups
same,neurological grading,[2],0.71±0.29
same,RCBF (after MCA),"[3]; 30 min reperfusion, DMSO 102.5% ± 6.8",94.9% ± 8.9
same,RCBF (during MCA),[3]; DMSO 25.2% ± 5.7,15.9% ± 1.7
same,phosphorylation of ERK1/2 in the middle cerebral artery territory,ERK1/2 [4],reduced
same,MABP (before),"[5]; 200 μM PD98059, n = 5, 10 minutes before ischemia, means±SD, DMSO 80.7 ± 7.5, in mmHg (unit assumed)",86.4 ± 10.9
same,MABP (after),"[5]; 200 μM PD98059, n = 5, 30 minutes after reperfusion, means±SD, DMSO 82.8 ± 13.5",86.0 ± 12.3
same,MABP (during),"[5]; 200 μM PD98059, n = 5, 1 hour after induction of ischemia, means±SD, DMSO 82.3 ± 2.1, in mmHg (unit assumed)",81.8 ± 4.1
same,"MABP, in words",[5]; 200 μM PD98059 vs DMSO,unaltered
same,body temperature,[6],34.6±0.8 °C
same,temporal muscle temperature,[6],35.5±0.1 °C
C[S+]([O-])c1ccc(-c2nc(-c3ccncc3)c(-c3ccc(F)cc3)[nH]2)cc1 (centres unmarked) [SB203580],inhibitor of SAPKs/JNKs (concentration),SAPKs/JNKs,> 10 µM
same,inhibitor of p38 MAP kinase (concentration),p38 MAP kinase,1 to 2 µM
N[C@@H](CCC(=O)O)C(=O)O [glutamate],completion of cell injury after addition of glutamate,HT22 cells; 5 mM glutamate (FIG. 5A),up to 10 hours
same,onset of cell injury after addition of glutamate,HT22 cells; 5 mM glutamate (FIG. 5A),8 h
same,time of further increase of ERK1/2 phosphorylation after glutamate addition,ERK1/2 [7],7 to 8 h
conjugation of tPA to polyethylene glycol: conjugation of tPA to polyethylene glycol,"clearance rate, in words",[8],reduce the clearance rate of tPA
